The viability is a read-out of living cells in per cent, often relative to untreated cells.

Read-outs that look alike come from different tables or passages of the source.

The experiment concerns Multidrug resistant Acinetobacter Baumannii, (MRAB). Nature of the experiment: microbe, parasite or virus in culture.

`N[C@@H](CCC(=O)N[C@@H](CS)C(=O)NCC(=O)O)C(=O)O` [GSH, glutathione]: the viability at 10000 µM (read-out: % bacterial viability, MRAB 1 014754 Urine, GSH 10 mM) is 73.6%; the viability at 10000 µM (read-out: % bacterial viability, MRAB 2 014801 Catheter, GSH 10 mM) was found to be 70.8%; the viability at 10000 µM (read-out: % bacterial viability, MRAB 3 015069 Skin, GSH 10 mM) came out at 84.6%; the viability at 10000 µM (read-out: % bacterial viability, MRAB 4 015095 Hospital Environ, GSH 10 mM) was determined as 68%; the viability at 10000 µM (read-out: % bacterial viability, MRAB 5 015103 Hospital Environ, GSH 10 mM) came to 65.1%; the viability at 10000 µM (read-out: % bacterial viability, MRAB 12 016419 Catheter, GSH 10 mM) was determined as 80.8%. The viability at 15000 µM runs as follows: (read-out: % bacterial viability, MRAB 1 014754 Urine, GSH 15 mM) 55.6%; (read-out: % bacterial viability, MRAB 2 014801 Catheter, GSH 15 mM) 41.2%; (read-out: % bacterial viability, MRAB 3 015069 Skin, GSH 15 mM) 63.2%; (read-out: % bacterial viability, MRAB 4 015095 Hospital Environ, GSH 15 mM) 57.7%; (read-out: % bacterial viability, MRAB 5 015103 Hospital Environ, GSH 15 mM) 51.5%; (read-out: % bacterial viability, MRAB 12 016419 Catheter, GSH 15 mM) 49%. In addition, the viability at 30000 µM is, setting by setting: (read-out: % bacterial viability, MRAB 1 014754 Urine, GSH 30 mM) 20.4%; (read-out: % bacterial viability, MRAB 2 014801 Catheter, GSH 30 mM) 2.45%; (read-out: % bacterial viability, MRAB 3 015069 Skin, GSH 30 mM) 37.7%; (read-out: % bacterial viability, MRAB 4 015095 Hospital Environ, GSH 30 mM) 13.8%; (read-out: % bacterial viability, MRAB 5 015103 Hospital Environ, GSH 30 mM) 16.7%; (read-out: % bacterial viability, MRAB 12 016419 Catheter, GSH 30 mM) 18.4%.

For the origin of these results see patent US20200016231A1, “BIOFILM DISRUPTING COMPOSITION” (Whiteley Corporation Pty Ltd, priority 2016, published 2020).
